Earlier results, collected in patent publication US20170360732A1, “Methods and Drug Therapies for Patency of Occluded Blood Vessels Following Angioplasty” (NephroGenesis, LLC, priority 2014, published 2017).
Like-named read-outs stand apart in the source and are kept apart here.

Columns and labels:
[1] = test system: peripheral blood monocytes
[2] = test system: Type III collagen
[3] = test system: Type I and Type IV collagen; settings: 100 μM
[4] = target: T1, lysyl oxidase (Homo sapiens, UniProt P28300)
T1 sequence (P28300 169-417): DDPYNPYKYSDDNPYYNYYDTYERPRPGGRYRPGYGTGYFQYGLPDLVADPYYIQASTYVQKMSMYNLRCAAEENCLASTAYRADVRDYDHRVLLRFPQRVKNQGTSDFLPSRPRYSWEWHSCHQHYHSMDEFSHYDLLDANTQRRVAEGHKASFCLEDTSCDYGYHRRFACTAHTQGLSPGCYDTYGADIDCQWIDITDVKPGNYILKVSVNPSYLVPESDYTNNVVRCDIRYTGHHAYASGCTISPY

[5] = test system: vascular smooth muscle cells; settings: 100 μM, cultured cells
[6] = test system: arteries injured with balloon angioplasty; settings: oral, 6 months, rabbit, vs controls
[7] = test system: vascular smooth muscle cells; settings: within 30 minutes
[8] = test system: vessel restenosis following angioplasty; settings: 28 days, rabbit model of atherosclerosis
[9] = not given; remark: listed apart in the source
[10] = not given; remark: listed apart in the source

SMILES: NCCN [ethylenediamine]
- blocking of lysyl oxidase-stimulated monocyte migration [1]: blocked

SMILES: O=C1O[C@H]([C@@H](O)CO)C(O)=C1O [ascorbic acid]
- stimulatory effect upon Type III collagen [2]: no stimulatory effect
- increase of expression of Type I and Type IV collagen [3]: 200%-250%
- maximum plasma concentration (intravenous infusion, 70 gms/m2 (approximately 140 gms), 1000 mg/min, oncology patients): 50 mM
- side effects (rapid intravenous infusion, 70-110 gm/M^2, oncology patients): no significant side effects
- inhibition of lysyl oxidase activity ([4]; 0.2 μM): up to 79%
- inhibition of lysyl oxidase activity ([4]; 2.0 μM, 1 hour after drug administration): 90%
- inhibition of lysyl oxidase activity ([4]; 2.0 μM, within 5 minutes): completely inhibited
- inhibition of lysyl oxidase activity ([4]; 10 μM, within 15 minutes): 100%
- reduction of vascular smooth muscle cell proliferation and migration [5]: up to 16%

SMILES: N#CCCN [β-aminopropionitrile]
- reduction in cross-sectional diameter of the arteries injured with balloon angioplasty [6]: 60%
- inhibition of migration of vascular smooth muscle cells [7]: 80%
- reduction of vessel restenosis following angioplasty [8]: 33%
- blocking of lysyl oxidase-stimulated monocyte migration [1]: blocked

SMILES: CC(C)(S)[C@@H](N)C(=O)O [D-penicillamine]
- side effects ([9]; intravenous administration): no reported side effects
- half-life ([9]; intravenous, patients with primary biliary cirrhosis): 1.43 h
- peak plasma level ([10]; 750 mg oral, patients): 3.0 µg/mL
- time to peak plasma level ([10]; 750 mg oral, patients): ≤ 3 h
- plasma levels achieved with typical clinical uses ([10]; typical clinical uses of the drug): 3000 ng/mL
